Measured values: PMC10176470, “Engaging a Non-catalytic Cysteine Residue Drives Potent and Selective Inhibition of Caspase-6” (Journal of the American Chemical Society, 2023)

How the values were obtained:
Test in all cases: SILAC proteomics / in-gel fluorescence, competition of probe 13-t labeling by 3a
[1] = biological target: proteins of HEK293T cells transiently overexpressing caspase-6 (Homo sapiens, UniProt P06744)
[2] = biological target: proteins of HEK293T cells transiently overexpressing caspase-6 (Homo sapiens, UniProt P11142); settings: Comp; protein HSPA8 P11142
[3] = biological target: T1, proteins of HEK293T cells transiently overexpressing caspase-6 (Homo sapiens, UniProt P12236)
T1 sequence (P12236 1-298): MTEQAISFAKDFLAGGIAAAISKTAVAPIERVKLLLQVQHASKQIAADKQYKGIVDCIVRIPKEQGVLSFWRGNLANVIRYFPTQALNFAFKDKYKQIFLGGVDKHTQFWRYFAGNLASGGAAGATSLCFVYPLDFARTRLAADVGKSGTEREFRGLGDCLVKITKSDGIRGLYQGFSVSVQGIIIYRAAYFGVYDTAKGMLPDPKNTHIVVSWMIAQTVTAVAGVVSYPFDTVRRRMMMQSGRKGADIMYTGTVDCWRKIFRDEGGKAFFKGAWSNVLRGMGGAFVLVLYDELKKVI

[4] = biological target: proteins of HEK293T cells transiently overexpressing caspase-6 (Homo sapiens, UniProt P13010); settings: Comp; protein XRCC5 P13010
[5] = biological target: T2, proteins of HEK293T cells transiently overexpressing caspase-6 (Homo sapiens, UniProt P22234); settings: Comp; protein PAICS P22234
T2 sequence (P22234 1-425): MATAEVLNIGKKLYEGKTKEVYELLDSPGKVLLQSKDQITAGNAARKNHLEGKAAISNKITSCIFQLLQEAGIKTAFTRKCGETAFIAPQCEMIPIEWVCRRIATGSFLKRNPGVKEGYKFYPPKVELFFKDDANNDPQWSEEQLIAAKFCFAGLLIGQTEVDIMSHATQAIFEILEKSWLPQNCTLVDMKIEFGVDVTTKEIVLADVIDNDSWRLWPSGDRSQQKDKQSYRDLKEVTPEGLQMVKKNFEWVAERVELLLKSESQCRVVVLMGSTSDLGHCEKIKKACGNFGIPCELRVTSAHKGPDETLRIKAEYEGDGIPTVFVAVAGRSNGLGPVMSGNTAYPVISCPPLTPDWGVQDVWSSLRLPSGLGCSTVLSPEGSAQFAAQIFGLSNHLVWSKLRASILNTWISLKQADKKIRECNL

[6] = biological target: proteins of HEK293T cells transiently overexpressing caspase-6 (Homo sapiens, UniProt P27635); settings: Comp; protein RPL10 P27635
[7] = biological target: proteins of HEK293T cells transiently overexpressing caspase-6 (Homo sapiens, UniProt P27708)
[8] = biological target: proteins of HEK293T cells transiently overexpressing caspase-6 (Homo sapiens, UniProt P33992); settings: Comp; protein MCM5 P33992
[9] = biological target: proteins of HEK293T cells transiently overexpressing caspase-6 (Homo sapiens, UniProt P36405)
[10] = biological target: proteins of HEK293T cells transiently overexpressing caspase-6 (Homo sapiens, UniProt P60900); settings: Comp; protein PSMA6 P60900
[11] = biological target: proteins of HEK293T cells transiently overexpressing caspase-6 (Homo sapiens, UniProt P62826); settings: Comp; protein RAN P62826
[12] = biological target: proteins of HEK293T cells transiently overexpressing caspase-6 (Homo sapiens, UniProt P62917); settings: Comp; protein RPL8 P62917
[13] = biological target: proteins of HEK293T cells transiently overexpressing caspase-6 (Homo sapiens, UniProt P63104); settings: Comp; protein YWHAZ P63104
[14] = biological target: proteins of HEK293T cells transiently overexpressing caspase-6 (Homo sapiens, UniProt Q15029); settings: Comp; protein EFTUD2 Q15029
[15] = biological target: proteins of HEK293T cells transiently overexpressing caspase-6 (Homo sapiens, UniProt Q7KZF4); settings: Comp; protein SND1 Q7KZF4
[16] = biological target: proteins of HEK293T cells transiently overexpressing caspase-6 (Homo sapiens, UniProt Q9H307)
[17] = protein GPI (P06744), Exp Comp, analysis C6, p 0.0078, 8 peptides
[18] = protein SLC25A6 (P12236), Exp Comp, analysis C6, p 0.5000, 2 peptides
[19] = protein CAD (P27708), Exp Comp, analysis C6, p 0.5000, 2 peptides
[20] = protein ARL3 (P36405), Exp Comp, analysis C6, p 0.1250, 5 peptides
[21] = protein PNN (Q9H307), Exp Comp, analysis C6, p 0.5000, 2 peptides

Question: Which enrich.exp.med ([1]; Comp, protein GPI P06744) does the source give for `C=CS(=O)(=O)N1C[C@H](C(=O)Nc2ccc(OC(F)(F)F)cc2)C[C@@H](c2ccccc2)C1` [3a] here?
Answer: 1.157

Question: What about the enrich.exp.med.lin [1, 17] of the same compound?
Answer: 2.229

Question: What about the enrich.exp.med.log2 [1, 17] of the same compound?
Answer: 1.157

Question: And the enrich.exp.med [2]?
Answer: 0.6036

Question: What about the enrich.exp.med ([3]; Comp, protein SLC25A6 P12236) of the same compound?
Answer: 3.139

Question: What about the enrich.exp.med.lin [3, 18] of the same compound?
Answer: 8.81

Question: What about the enrich.exp.med.log2 [3, 18] of the same compound?
Answer: 3.139

Question: What about the enrich.exp.med [4] of the same compound?
Answer: 0.6006

Question: What about the enrich.exp.med [5] of the same compound?
Answer: 0.7148

Question: And the enrich.exp.med [6]?
Answer: 0.809

Question: What about the enrich.exp.med ([7]; Comp, protein CAD P27708) of the same compound?
Answer: 1.9642

Question: And the enrich.exp.med.lin [7, 19]?
Answer: 3.902

Question: What about the enrich.exp.med.log2 [7, 19] of the same compound?
Answer: 1.9642

Question: And the enrich.exp.med [8]?
Answer: 0.8256

Question: What about the enrich.exp.med ([9]; Comp, protein ARL3 P36405) of the same compound?
Answer: 1.0898

Question: And the enrich.exp.med.lin [9, 20]?
Answer: 2.128

Question: What about the enrich.exp.med.log2 [9, 20] of the same compound?
Answer: 1.0898

Question: What about the enrich.exp.med [10] of the same compound?
Answer: 0.7694

Question: And the enrich.exp.med [11]?
Answer: 0.6474

Question: What about the enrich.exp.med [12] of the same compound?
Answer: 0.8074

Question: And the enrich.exp.med [13]?
Answer: 0.6236

Question: What about the enrich.exp.med [14] of the same compound?
Answer: 0.5983

Question: What about the enrich.exp.med [15] of the same compound?
Answer: 0.6493

Question: And the enrich.exp.med ([16]; Comp, protein PNN Q9H307)?
Answer: 1.018

Question: What about the enrich.exp.med.lin [16, 21] of the same compound?
Answer: 2.025

Question: And the enrich.exp.med.log2 [16, 21]?
Answer: 1.018
